Assay results published in paper PMC7532663, “Pharmacological inhibition of mTORC1 increases CCKBR-specific tumor uptake of radiolabeled minigastrin analogue [^177Lu]Lu-PP-F11N” (Theranostics, 2020).
Like-named read-outs stand apart in the source and are kept apart here.

Assays:
[1] = system: A431/CCKBR cells; assay: Kinase inhibitor library screen: [177Lu]Lu-PP-F11N cell uptake; format: cell-based, human; settings: ratio treatment/control; 10 μM inhibitor
[2] = system: A431/CCKBR cells; assay: Total protein concentration of cell lysates; format: cell-based, human
Source text: […]. […] […].

[3] = system: A431/CCKBR cells; assay: CellTiter 96 AQueous (MTS) proliferation assay; format: cell-based, human; settings: for Proliferation (ratio): ratio treatment/control, 10 μM inhibitor
[4] = system: A431/CCKBR cells; settings: 100 nM RAD001 or 10 mM metformin
Experimental: Radioactive medium (and PBS wash) was collected and the cells were washed 2× with glycine buffer (pH=2) for 5 min at RT followed by a dissolving step in 1 M NaOH for 15 min at 37°C. All 3 fractions (medium/PBS; glycine; dissolved cells) were measured on Cobra II Auto-Gamma counter (Packard). For the cell uptake analysis, the PBS-washed cells were directly dissolved in 1M NaOH, or combined glycine-wash and 1M NaOH dissolved cells, were measured on the Gamma counter. […] Protein concentration of cell lysates was measured by using NanoPhotometer® UV-Vis P-Class (Implen).

[5] = system: A431/CCKBR-tumor bearing nude mice
[6] = system: A431/CCKBR tumors; assay: HE staining and immunohistochemistry of tumor sections; format: in vivo, mouse
Experimental: Formalin-fixed, paraffin tumor sections were deparaffinized, rehydrated and pretreated in 10 mM citrate buffer, pH 6.0, at 98 °C for 60 minutes, followed by incubation with 4% fat-free milk in PBS for 90 minutes. For avidin/biotin blocker treatment (Invitrogen) and detection, the ABC method was used. For monoclonal antibody against Ki67 (SP6, Thermo Scientific) and CD34 (cloneQBend/10; Dako) signals were recorded using an automated instrument reagent system (Discovery XT, Ventana Medical System Inc.). Images of hematoxylin-counterstained sections were captured (Nikon, YTHM) and analyzed using ImageAccess Enterprise7 and ImageJ software. Tumor necrotic areas and vascularization were analyzed in 10 (RAD001 and PBS) and 8 (metformin) images, whereas Ki67 and mitotic index in 15 (RAD001 and PBS) and 12 (metformin) images.

[7] = system: A431/CCKBR-tumor bearing nude mice; assay: Tumor volume, mouse weight and toxicity during treatment; format: in vivo
[8] = system: mTORC1-regulated phosphorylation of the ribosomal protein S6 at Ser235/236; assay: WB analysis of phospho-S6; format: cell-based, human; settings: A431/CCKBR cells, 100 nM RAD001 or 10 mM metformin
Experimental: Antibodies against phospho-S6 at S235/S236 (D57.2.2F), ERK1/2 (9102), phospho-ERK1/2 (T202/Y204), GAPDH (14C10) and HA-Tag (C29F4) were obtained from Cell Signaling Technology, whereas the anti-CCKBR (ab77077) was from Abcam. Cells were homogenized in lysis buffer (50 mM Tris-HCl pH 7.5, 150 mM NaCl, 1% Triton X, 0.1% SDS supplemented with 1 mM sodium orthovanadate, 1 mM NaF and protease inhibitor cocktail (Roche)). 50 μg of total protein lysates were separated by SDS-PAGE and transferred to PVDF membranes (Millipore) by electroblotting. Membranes were blocked with 5% skim milk in TBST (0.1% Tween 20) for 1 h, and incubated with 2% BSA in TBST overnight with the primary antibody followed by 2 h incubation with HRP-conjugated secondary antibody. Signals were produced by using a chemiluminescence reagent (ECL) and acquired by ImageQuant RT ECL Imager (GE Healthcare). Prior to CCKBR detection by WB, protein lysates were subjected to deglycosylation. Briefly, 18 μL of total protein lysates (50 µg) were mixed with 2 μL of 10× denaturing buffer (5% SDS, 0.4 M DTT) and incubated for 10 min at RT. Next, 4 μL of 10× Glycobuffer (0.5 M sodium phosphate, pH 7.5), 4 μL of 10% Tween-20 and 10 μL of water were added. Finally, 2 μL of PNGase F (Sigma) was added and the reaction was carried out for 16 h at 37°C.

[9] = 10 μM kinase inhibitor, MTS absorbance at 570 nm, reference 650 nm, mean of triplicate
[10] = co-injection of 60 nmol minigastrin

Compound | Proliferation [A570] [3, 9] | further results
CO[C@H]1C[C@@H]2CC[C@@H](C)[C@@](O)(O2)C(=O)C(=O)N2CCCC[C@H]2C(=O)O[C@H]([C@H](C)C[C@@H]2CC[C@@H](O)[C@H](OC)C2)CC(=O)[C@H](C)/C=C(\C)[C@@H](O)[C@@H](OC)C(=O)[C@H](C)C[C@H](C)/C=C/C=C/C=C/1C [Rapamycin] | 0.91 | Uptake (ratio) [1]: 1.24; decrease of total protein level ([2]; 10 µM, lysates of validation experiment): 26%; Proliferation (ratio) [3]: 0.94
CN(C)C(=N)N=C(N)N [Metformin, metformin] | – | internalization ratio [treatment/control] ([4]; 20 h): 1.3; [177Lu]Lu-PP-F11N internalization in treated cells ([4]; 20 h treatment, 0.3 pmol radioligand 1 h, triplicate): 21.1%; influence on [177Lu]Lu-PP-F11N tumor uptake ([5]; three doses of metformin or one RAD001 dose): only moderately and did not reach statistical significance; mitotic index ([6]; 5 days treatment, mean ± SD): did not cause a significant change; tumor vascularization ([6]; HE and CD34, five-day treatment): No significant difference; necrosis (necrotic area) ([6]; HE stain, 5 days treatment, mean ± SD): did not show a significant difference; Ki67 positive cells ([6]; IHC, 5 days treatment, mean ± SD): did not cause a significant change; mouse weight ([7]; 3 daily doses): no effects; tumor volume ([7]; 3 daily doses): no effects; mouse weight ([7]; 5 days daily treatment): no effects; tumor volume ([7]; 5 days daily treatment): no effects; phosphorylation of S6 at Ser235/236 (WB) [8]: lack of mTORC1-regulated phosphorylation; total protein level compared to control ([2]; 100 nM RAD001 or 10 mM metformin, 20 h): 80%
C/C(O)=C(\C#N)C(=O)Nc1cc(Br)ccc1Br [LFM-A13] | – | Proliferation [A570] [3]: 0.93
Cl.O=S(=O)(c1cccc2c(I)cccc12)N1CCCNCC1 [ML-7·HCl] | 0.95 | –
Cc1ccc(NC(=O)c2cccc(N(C)C)c2)cc1NC(=O)c1ccc(O)cc1 [ZM 336372] | 0.87 | –
Cl.NCCNS(=O)(=O)c1cccc2cnccc12 [H-9·HCl] | 1.03 | –
N#CC(C#N)=Cc1cc(O)c(O)c(O)c1 [TYRPHOSTIN 25] | 1.12 | –
O.O.O=c1c(O)c(-c2ccc(O)c(O)c2)oc2cc(O)cc(O)c12 [Quercetin·2H2O] | – | Proliferation [A570] [3]: 1.03
CCCCCCCCCCCCC/C=C/[C@@H](O)[C@@H](N)CO [D-erythro-Sphingosine] | – | Proliferation [A570] [3]: 0.96
COc1cccc(-c2cc(=O)c3ccccc3o2)c1N [PD-98059] | 1.01 | –
N#C/C(=C\c1ccc(O)c(O)c1)C(N)=S [TYRPHOSTIN 47] | – | Proliferation [A570] [3]: 0.98
CC(C)c1cnc(NC(=O)Cc2ccccc2)s1 [BML-259] | 1.09 | –
CC(C)n1cnc2c(NCc3ccccc3)nc(NCCO)nc21 [N9-isopropyl-olomoucine] | 0.93 | –
Cc1ccc(S(=O)(=O)/C=C/C#N)cc1 [BAY 11-7082] | 1.14 | –
COc1cc(/C=C(\C#N)C(N)=O)cc(CSc2nc3ccccc3s2)c1O [AG-8 25] | 0.80 | –
CN(C)CCCn1cc(C2=C(c3c[nH]c4ccccc34)C(=O)NC2=O)c2ccccc21 [GF 109203X] | 0.95 | –
O=c1c(-c2ccc(O)cc2)coc2cc(O)cc(O)c12 [Genistein] | 0.95 | –
CN(C)c1ccc(/C=C2\C(=O)Nc3ccccc32)cc1 [SU 4312] | 0.97 | –
Cc1cc(O)c2c(=O)c3c(O)cc(O)c4c5c(O)cc(O)c6c(=O)c7c(O)cc(C)c8c1c2c(c34)c(c78)c65 [Hypericin] | 0.93 | –
N#C/C(=C\c1ccc(O)c(O)c1)C(=O)Nc1ccccc1 [AG-4 94] | 0.97 | –
CC(=O)c1c(O)c(C)c(O)c(Cc2c(O)c3c(c(C(=O)/C=C/c4ccccc4)c2O)OC(C)(C)C=C3)c1O [Rottle rin] | 0.64 | –
COc1cc2ncc(-c3ccccc3)nc2cc1OC [AG-1296] | 0.94 | –
COC[C@H]1OC(=O)c2coc3c2[C@@]1(C)C1=C(C3=O)[C@@H]2CCC(=O)[C@@]2(C)C[C@H]1OC(C)=O [Wortmannin] | 0.86 | –

Compound | Proliferation [A570] [3, 9] | further results
O=C(O)c1ccc2nc(-c3ccccc3)c(-c3ccccc3)nc2c1 [BML-257] | 0.95 | Uptake (ratio) [1]: 1.26; Proliferation (ratio) [3]: 0.98
Cl.O=S(=O)(c1cccc2c(Cl)cccc12)N1CCCNCC1 [ML-9·HCl] | 0.94 | –
Oc1cc(O)cc(/C=C/c2ccc(O)c(O)c2)c1 [Piceatannol] | 1.02 | –
C[S+]([O-])c1ccc(-c2nc(-c3ccncc3)c(-c3ccc(F)cc3)[nH]2)cc1 (stereo not drawn) [SB-203580] | – | Proliferation [A570] [3]: 0.95
O=P(O)(O)C(O)c1ccc2ccccc2c1 (stereo not drawn) [Hydroxy-2-naphthalenylmethylphosp honic acid] | 1.00 | –
CC(C)(C)c1cc(/C=C(\C#N)C(N)=S)cc(C(C)(C)C)c1O [AG-8 79] | 0.80 | –
N#CC(C#N)=C(N)/C(C#N)=C/c1cc(O)c(O)c(O)c1 [TYRPHOSTIN 51] | 1.05 | –
BML-265 | 0.78 | –
C[C@@H](N)[C@H]1CC[C@H](C(=O)Nc2ccncc2)CC1.Cl.Cl [Y-27632·2HCl] | 1.02 | –
Nc1ncc2[nH]cnc2n1 [2-Am inopurine] | 0.96 | –
COCc1cc(O)c(O)c(O)c1-c1c(COC)cc(O)c(O)c1O [2,2',3,3',4,4'-Hexahydroxy-1,1'-biphenyl-6,6'-dimethanol dimethyl ether] | – | Proliferation [A570] [3]: 0.98
Cl.Cl.O=S(=O)(c1cccc2cnccc12)N1CCCNCC1 [HA-1077·2HCl] | 0.99 | –
COC(=O)/C=C/c1cc(O)ccc1O [Erbstatin analog] | 1.12 | –
N#C/C(=C\c1ccc(O)c(O)c1)C(N)=O [TYRPHOSTIN 46] | 1.04 | –
C=CC(=O)c1ccc2ccccc2c1 [ZM 449829] | 0.98 | –
Oc1c2ccccc2c2c3c(cccc13)N=N2 [SP 600125] | 0.77 | –
Cl.NC(N)=NCCNS(=O)(=O)c1cccc2cnccc12 [HA-1004·HCl] | 1.05 | –
LEEEEEAYGWMDF [minigastrin] | – | [177Lu]Lu-PP-F11N kidney uptake with blocking [5, 10]: not affected; [177Lu]Lu-PP-F11N uptake in the tumor and stomach with blocking [5, 10]: reduced
Cn1cnc2nc(NCCO)nc(NCc3ccccc3)c21 [Iso-olomoucine] | 0.96 | –
Cl.Cl.O=S(=O)(NCCNC/C=C/c1ccc(Br)cc1)c1cccc2cnccc12 [H-89·2HCl] | 0.97 | –
CS(=O)(=O)O.Cn1cc(C2=C(c3cn(CCCSC(=N)N)c4ccccc34)C(=O)NC2=O)c2ccccc21 [Ro 31-8220 mesylate] | 0.51 | –
N#CC(C#N)=Cc1ccc([N+](=O)[O-])c(O)c1 [AG-1 26] | 1.01 | –
